≈ marks a conversion by molar mass, not a printed value. Where “and” joins values, the source holds several entries; their conditions need not be identical. Identical values can stand only once. Like-named read-outs stand apart in the source and are kept apart here.
Key:
[1] = Hemolytic activity against human erythrocytes (HC50 / MHC, microtiter dilution); type: cell-based; conditions: human, 1% human erythrocytes, pH 7.4
Experimental: Hemoglobin release was determined spectrophotometrically at 570 nm. The hemolytic activity was determined as the peptide concentration that caused 50% hemolysis of erythrocytes after 18 h (HC50). […] HC50 was determined by a plot of peptide concentration versus percent lysis.

Acinetobacter baumannii = type: cell-based; conditions: for Acinetobacter baumannii MICGM: geometric mean, 11 different isolates, 24 hours at 37° C.
Experimental: (§1) Minimal inhibitory concentrations (MICs) are determined using a standard microtiter dilution method, with 3 sets of determinations, in LB (Luria-Bertani) no-salt medium (10 g of tryptone and 5 g of yeast extract per liter). In some cases, Mueller Hinton (MH) medium or Brain Heart Infusion (BHI) medium is used.
(§2) Briefly, cells were grown overnight at 37° C. in LB and diluted in the same medium. Serial dilutions of the peptides are added to the microtiter plates in a volume of 100 μl followed by 10 μl of bacteria to give a final inoculum of 5×10^5 colony-forming units/ml. Plates are incubated at 37° C. for 24 hours and MICs determined as the lowest peptide concentration that inhibited growth. Alternatively, minimal inhibitory concentrations are determined using a standard microtiter dilution method in a Mueller-Hinton (MH) medium. Briefly, cells are grown overnight at 37° C. in MH broth and diluted in the same medium. In some cases, serial dilutions of the peptides are added to the microtiter plates in a volume of 100 μl followed by 10 μl of bacteria to give a final inoculum of 1×10^5 colony-forming units/ml. Plates are incubated at 37° C. for 24 hours and MICs are determined as the lowest peptide concentration that inhibited growth.
The biological activities of these six peptide analogs was determined against 11 clinical isolated of Acinetobacter baumannii (Table 9). Please note that the activities are reported in micromolar rather than microgram/ml. This allows a direct comparison on a molar basis with the effectiveness of molecules of different molecular weights whether peptides disclosed herein or antibiotics which in general are smaller in molecular mass. […] These are the highest antimicrobial activities observed in studies of antimicrobial peptides derived by modifying the peptide sequence of SEQ ID NO:24 (D1). D22 has the best hemolytic activity of the six analogs (D17-D22) and a therapeutic index of […] compared to […] for D1 (Table 9). D22 has no apparent advantage over D1 as determined in these experiments.

[2] = system: Methicillin Resistant Staphylococcus aureus (MRSA) and Staphylococcus aureus; type: cell-based
Experimental: as §1, §2
Identification of Antimicrobial Peptides for Gram-positive Bacteria. In a manner similar to testing against gram-negative bacteria, experiments were carried out to screen the 14 peptides used to identify antimicrobial peptides with significant activity against A. baumanii shown above against 20 different clinical isolates of Methicillin Resistant Staphylococcus aureus (MRSA) and Staphylococcus aureus.

[3] = RP-HPLC retention as measure of overall peptide hydrophobicity; type: physicochemical; conditions: for Change in hydrophobicity (retention time) relative to PVL: 80° C., polar face substitution
Experimental: Crude and purified peptides were analyzed on an Agilent 1100 series liquid chromatograph (Little Falls, Del.). Runs were performed on a Zorbax 300 SB-C8 column (150×2.1 mm I.D.; 5 μm particle size, 300 Å pore size) from Agilent Technologies using linear AB gradient (1% acetonitrile/min) and a flow rate of 0.25 ml/min, where eluant A was 0.2% aqueous TFA, pH 2 and eluant B was 0.2% TFA in acetonitrile.

Pseudomonas aeruginosa = conditions: for MIC PAO 1: 37° C., 24 h, strain PAO1; for MIC GM (geometric mean of the MIC values): six P. aeruginosa strains; for MIC CP 204: strain CP204; for MIC M 2: strain M2; for MIC PA 14: strain PA14; for MIC PAK: strain PAK; for MIC WR 5: strain WR5; for Pseudomonas aeruginosa MICGM: geometric mean, 6 different isolates, 24 hours at 37° C.
[4] = RP-HPLC temperature profiling (peptide self-association parameter PA); type: physicochemical; conditions: enantiomer pairs of V681 analogs, 5° C. to 80° C., relative to peptide C
Experimental: Temperature profiling analyses were performed on the same column in 3° C. increments, from 5° C. to 80° C., using a linear AB gradient of 0.5% acetonitrile/min, as described previously (30, 53, 92, 93).
Peptide self-association (i.e., the ability to oligomerize/dimerize) in aqueous solution is a very important parameter for antimicrobial activity (53, 92, 93). Without wishing to be bound by any particular theory, the present inventors postulated that monomeric random-coil antimicrobial peptides are best suited to pass through the capsule and cell wall of microorganisms prior to penetration into the cytoplasmic membrane, induction of α-helical structure and disruption of membrane structure to kill target cells (93). Thus, if the self-association ability of a peptide in aqueous media is too strong (e.g., forming stable folded dimers through interaction of their non-polar faces) this could decrease the ability of the peptide to dissociate to monomer, in addition oligomerization of the peptide can prevent it from effectively passing through the capsule and cell wall to reach the membrane. The ability of the peptides in the present study to self-associate was determined by the technique of RP-HPLC temperature profiling at pH 2 (29, 30, 38). The reason pH 2 is used to determine self-association of cationic AMPs is that highly positively charged peptides are frequently not eluted from reversed-phase columns at pH 7 due to non-specific binding to negatively charged silanols on the column matrix. This is not a problem at pH 2 since the silanols are protonated (i.e., neutral) and non-specific electrostatic interactions are eliminated. At pH 2, the interactions between the peptide and the reversed-phase matrix involve ideal retention behavior, i.e., only hydrophobic interactions between the preferred binding domain (nonpolar face) of the amphipathic molecule and the hydrophobic surface of the column matrix are present (39). […] Control peptide C is a monomeric random coil peptide in both aqueous and hydrophobic media; thus, its linear decrease in peptide retention behavior with increasing temperature within the range of 5° C. to 80° C. represents only the general effects of temperature due to greater solute diffusivity and enhanced mass transfer between the stationary and mobile phase at higher temperatures (55). To allow for these general temperature effects, the data for the control peptide was subtracted from each temperature profile as shown in FIG. 2B. Thus, the peptide self-association parameter, PA, represents the maximum change in peptide retention time relative to the random coil peptide C. Note that the higher the PA value, the greater the self-association.

CC[C@@H](C)[C@@H](NC(=O)[C@@H](CC(C)C)NC(=O)[C@@H](CCCCN)NC(=O)[C@@H](CC(C)C)NC(=O)[C@@H](CC(C)C)NC(=O)[C@H](NC(=O)[C@@H](Cc1c[nH]cn1)NC(=O)[C@@H](CC(C)C)NC(=O)[C@@H](CCCCN)NC(=O)[C@H](NC(=O)[C@@H](CCCCN)NC(=O)[C@@H](CCCCN)NC(=O)[C@@H](CC(C)C)NC(=O)[C@@H](CO)NC(=O)[C@@H](CCCCN)NC(=O)[C@@H](Cc1ccccc1)NC(=O)[C@H](NC(=O)[C@@H](CCCCN)NC(=O)[C@@H](CC(C)C)NC(=O)[C@@H](Cc1ccccc1)NC(=O)[C@@H](CO)NC(=O)[C@@H](CCCCN)NC(=O)[C@@H](Cc1c[nH]c2ccccc12)NC(=O)[C@@H](CCCCN)NC(C)=O)[C@H](C)O)[C@H](C)O)[C@H](C)O)C(=O)N[C@H](CO)C(=O)N[C@H](CO)C(N)=O [Peptide D5, Ac-KWKSFLKTFKSLKKTKLHTLLKLISS-amide]
HC50 at 18 h [1]: 47 µg/mL and 14.9 µM | MIC GM (geometric mean) (Acinetobacter baumannii): 1.7 µM (≈ 5.35 µg/mL) | Acinetobacter baumannii MICGM (Acinetobacter baumannii): 1.7 µM | MIC GM (geometric mean) [2]: 5.4 µM (≈ 17 µg/mL) | Hydrophobicity (retention time in RP-HPLC) ([3]; pH 2, room temperature): 80.44 min | MIC PAO 1 (Pseudomonas aeruginosa; Brain Heart Infusion medium): 31.3 µg/mL (≈ 9.95 µM) | MIC GM (geometric mean of the MIC values) (Pseudomonas aeruginosa; Brain Heart Infusion medium): 22.1 µg/mL | MIC CP 204 (Pseudomonas aeruginosa; Brain Heart Infusion medium): 31.3 µg/mL (≈ 9.95 µM) | MIC M 2 (Pseudomonas aeruginosa; Brain Heart Infusion medium): 15.6 µg/mL (≈ 4.96 µM) | MIC PA 14 (Pseudomonas aeruginosa; Brain Heart Infusion medium): 15.6 µg/mL (≈ 4.96 µM) | MIC PAK (Pseudomonas aeruginosa; Brain Heart Infusion medium): 31.3 µg/mL (≈ 9.95 µM) | MIC WR 5 (Pseudomonas aeruginosa; Brain Heart Infusion medium): 15.6 µg/mL (≈ 4.96 µM) | MIC PAO 1 (Pseudomonas aeruginosa; Mueller Hinton medium): 7.8 µg/mL (≈ 2.48 µM) | MIC GM (geometric mean of the MIC values) (Pseudomonas aeruginosa; Mueller Hinton medium): 11.0 µg/mL | MIC CP 204 (Pseudomonas aeruginosa; Mueller Hinton medium): 15.6 µg/mL (≈ 4.96 µM) | MIC M 2 (Pseudomonas aeruginosa; Mueller Hinton medium): 7.8 µg/mL (≈ 2.48 µM) | MIC PA 14 (Pseudomonas aeruginosa; Mueller Hinton medium): 7.8 µg/mL (≈ 2.48 µM) | MIC PAK (Pseudomonas aeruginosa; Mueller Hinton medium): 15.6 µg/mL (≈ 4.96 µM) | MIC WR 5 (Pseudomonas aeruginosa; Mueller Hinton medium): 15.6 µg/mL (≈ 4.96 µM) | Pseudomonas aeruginosa MICGM (Pseudomonas aeruginosa): 3.5 µM

CC[C@@H](C)[C@@H](NC(=O)[C@@H](C)NC(=O)[C@@H](CCCCN)NC(=O)[C@@H](CC(C)C)NC(=O)[C@@H](CC(C)C)NC(=O)[C@H](NC(=O)[C@@H](CCCCN)NC(=O)[C@@H](CC(C)C)NC(=O)[C@@H](CCCCN)NC(=O)[C@@H](CCCCN)NC(=O)[C@@H](CCCCN)NC(=O)[C@@H](CCCCN)NC(=O)[C@@H](CC(C)C)NC(=O)[C@@H](CCCCN)NC(=O)[C@@H](CO)NC(=O)[C@@H](Cc1ccccc1)NC(=O)[C@H](NC(=O)[C@@H](CCCCN)NC(=O)[C@@H](CC(C)C)NC(=O)[C@@H](Cc1ccccc1)NC(=O)[C@@H](CO)NC(=O)[C@@H](CCCCN)NC(=O)[C@@H](Cc1c[nH]c2ccccc12)NC(=O)[C@@H](CCCCN)NC(C)=O)[C@H](C)O)[C@H](C)O)C(=O)N[C@H](CO)C(=O)N[C@H](CCCCN)C(N)=O [Peptide D13, Ac-KWKSFLKTFSKLKKKKLKTLLKAISK-amide]
HC50 at 18 h [1]: 106 µM | MIC GM (geometric mean) (Acinetobacter baumannii): 1.0 µM (≈ 3.16 µg/mL) | Acinetobacter baumannii MICGM (Acinetobacter baumannii): 1 µM | MIC GM (geometric mean) [2]: 8.6 µM (≈ 27.2 µg/mL) | Pseudomonas aeruginosa MICGM (Pseudomonas aeruginosa): 2.5 µM

PKL: V681 with L-Lys at position 11, SEQ ID NO:17 (KWKSFLKTFKKAVKTVLHTALKAISS)
Change in hydrophobicity (retention time) relative to PVL [3]: -2.29 min

CC[C@@H](C)[C@@H](NC(=O)[C@@H](CC(C)C)NC(=O)[C@@H](CCCCN)NC(=O)[C@@H](CC(C)C)NC(=O)[C@@H](CC(C)C)NC(=O)[C@H](NC(=O)[C@@H](CCCCN)NC(=O)[C@@H](CC(C)C)NC(=O)[C@@H](CCCCN)NC(=O)[C@@H](CCCCN)NC(=O)[C@@H](CCCCN)NC(=O)[C@@H](CCCCN)NC(=O)[C@@H](CC(C)C)NC(=O)[C@@H](CCCCN)NC(=O)[C@@H](CO)NC(=O)[C@@H](Cc1ccccc1)NC(=O)[C@H](NC(=O)[C@@H](CCCCN)NC(=O)[C@@H](CC(C)C)NC(=O)[C@@H](Cc1ccccc1)NC(=O)[C@@H](CO)NC(=O)[C@@H](CCCCN)NC(=O)[C@@H](Cc1c[nH]c2ccccc12)NC(=O)[C@@H](CCCCN)NC(C)=O)[C@H](C)O)[C@H](C)O)C(=O)N[C@H](CO)C(=O)N[C@H](CCCCN)C(N)=O [Peptide D12, Ac-KWKSFLKTFSKLKKKKLKTLLKLISK-amide]
HC50 at 18 h [1]: 18.3 µM | MIC GM (geometric mean) (Acinetobacter baumannii): 1.9 µM (≈ 6.09 µg/mL) | Acinetobacter baumannii MICGM (Acinetobacter baumannii): 1.9 µM | MIC GM (geometric mean) [2]: 5.2 µM (≈ 16.7 µg/mL) | Pseudomonas aeruginosa MICGM (Pseudomonas aeruginosa): 3.9 µM

D-NAL: enantiomer of NAD, SEQ ID NO:25 (KWKSFLKTFKSAAKTVLHTALKAISS; not fully specified; D-amino acids)
PA (peptide self-association parameter) [4]: 4.1

PAL: V681 with L-Ala at position 11, SEQ ID NO:14 (KWKSFLKTFKAAVKTVLHTALKAISS)
Change in hydrophobicity (retention time) relative to PVL [3]: +0.45 min

D-V681: D-enantiomer of V681 (KWKSFLKTFKSAVKTVLHTALKAISS; all D-amino acids)
PA (peptide self-association parameter) [4]: 7.2

Source: patent US9352015B2, “Antimicrobial peptides” (priority 2009, dated 2016)
